Drawing on patent US8513270B2, “Substituted heterocycles as Janus kinase inhibitors” (Incyte Corporation, priority 2006, dated 2013), this text covers IC50 and GI50 for 16 compounds.

The target of assay [1] is T1, human JAK3 (a.a. 781-1124) (Homo sapiens, UniProt P52333).
T1 construct: JAK3 (a.a. 781-1124); His tag (N); made in house; host or cells: insect cells (baculovirus)
Nature of the assay: In vitro JAK kinase assay (HTRF), JAK3. The note with it: JAK3, 3 μM ATP; read-out: EXAMPLE A JAK2-JAK3 HTRF-2 IC50. In kind it is biochemical. The procedure: (§1) Compounds herein were tested for inhibitory activity of JAK targets according to the following in vitro assay described in Park et al., Analytical Biochemistry 1999, 269, 94-104. The catalytic domains of human JAK1 (a.a. 837-1142), JAK2 (a.a. 828-1132) and JAK3 (a.a. 781-1124) with an N-terminal His tag were expressed using baculovirus in insect cells and purified. The catalytic activity of JAK1, JAK2 or JAK3 was assayed by measuring the phosphorylation of a biotinylated peptide. The phosphorylated peptide was detected by homogenous time resolved fluorescence (HTRF). IC50s of compounds were measured for each kinase in the reactions that contain the enzyme, ATP and 500 nM peptide in 50 mM Tris (pH 7.8) buffer with 100 mM NaCl, 5 mM DTT, and 0.1 mg/mL (0.01%) BSA. The ATP concentration in the reactions was 90 μM for JAK1, 30 μM for JAK2 and 3 μM for JAK3. Reactions were carried out at room temperature for 1 hr and then stopped with 20 μL 45 mM EDTA, 300 nM SA-APC, 6 nM Eu—Py20 in assay buffer (Perkin Elmer, Boston, Mass.). Binding to the Europium labeled antibody took place for 40 minutes and HTRF signal was measured on a Fusion plate reader (Perkin Elmer, Boston, Mass.).
In general terms: In TR-FRET formats the signal depends on donor and acceptor labels being close together.

For a further assay, the target named is TF1-BCRABL1 cells (Homo sapiens, UniProt P00519). Nature of the assay: ABL1 cell based assay: viability of ABL1-dependent cell line (CellTiter-Glo). The conditions noted are these: 72 hours, cell viability; read-out: EXAMPLE F JAK2-TF1-BCRABL1 IC50. The procedure:
One or more compounds herein were tested for inhibitory activity of ABL1 targets according to at least one of the following cellular assays.
Cancer cell lines dependent on ABL1 kinase activity for proliferation and/or survival were plated at 3000 cells per well (96 well plate format) in RPMI 1640, and 10% FBS. Compounds were added to the cells in DMSO/media (final concentration 0.2% DMSO) and incubated for 72 hours at 37° C., 5% CO2. The effect of compound on cell viability was assessed using the CellTiter-Glo Luminescent Cell Viability Assay (Promega) followed by TopCount (Perkin Elmer, Boston, Mass.) quantitation. ABL1-dependent cell lines can include those naturally dependent on ABL1 activity or those engineered to be dependent on ABL1 activity (e.g. BaF/3 cells). The latter can be generated using wild-type ABL1 or mutant ABL1 (such as T315I ABL1) so that the activity of compounds can be assessed against different variants of the ABL1 kinase. Potential off-target effects of compounds were measured in parallel using a non-ABL1 driven cell line with the same assay readout. […] All experiments were performed in duplicate or greater.
For orientation: Cellular ATP, detected with luciferase, serves as a proxy for viable cell number.

Assay [2] addresses T2, human JAK2 (a.a. 828-1132) (Homo sapiens, UniProt O60674).
T2 construct: JAK2 (a.a. 828-1132); His tag (N); made in house; host or cells: insect cells (baculovirus)
Nature of the assay: In vitro JAK kinase assay (HTRF), JAK2. In kind it is biochemical. The conditions noted are these: JAK2, 30 μM ATP; read-out: EXAMPLE A HTS-JAK2 HTRF-2 IC50. The procedure: as §1

The subject of assay [3] is JAK2_INA61 (cancer cell line dependent on cytokines and JAK/STAT signal transduction). Nature of the assay: Cellular assay: viability of cytokine-dependent cancer cell line (CellTiter-Glo). In kind it is cell-based. The note with it: 72 hours, read-out: EXAMPLE B JAK2_INA61 IC50. The procedure:
One or more compounds herein were tested for inhibitory activity of JAK targets according to at least one of the following cellular assays.
Compounds were added to the cells in DMSO/media (final concentration 0.2% DMSO) and incubated for 72 hours at 37° C., 5% CO2. The effect of compound on cell viability was assessed using the CellTiter-Glo Luminescent Cell Viability Assay (Promega) followed by TopCount (Perkin Elmer, Boston, Mass.) quantitation. Potential off-target effects of compounds were measured in parallel using a non-JAK driven cell line with the same assay readout. […] All experiments were performed in duplicate.

For assay [4], the target named is T3, human JAK1 (a.a. 837-1142) (Homo sapiens, UniProt P23458).
T3 construct: human JAK1 (a.a. 837-1142); His tag (N); made in house; host or cells: insect cells (baculovirus)
T3 sequence (P23458 849-1154): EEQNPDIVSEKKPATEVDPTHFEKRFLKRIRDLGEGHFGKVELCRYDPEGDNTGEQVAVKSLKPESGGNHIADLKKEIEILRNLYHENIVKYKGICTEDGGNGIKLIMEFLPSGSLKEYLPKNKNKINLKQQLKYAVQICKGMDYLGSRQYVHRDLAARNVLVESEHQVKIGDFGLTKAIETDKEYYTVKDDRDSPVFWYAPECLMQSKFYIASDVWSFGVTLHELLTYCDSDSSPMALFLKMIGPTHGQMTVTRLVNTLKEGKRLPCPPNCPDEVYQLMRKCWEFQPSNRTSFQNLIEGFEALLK
Nature of the assay: In vitro JAK kinase assay (HTRF), JAK1. Type of assay: biochemical. The note with it: JAK1, 90 μM ATP; read-out: EXAMPLE A JAK2-JAK1 HTRF-2 IC50. The procedure:
as §1

Chain of TF1-BCRABL1 cells (P00519 whole entry, change not shown): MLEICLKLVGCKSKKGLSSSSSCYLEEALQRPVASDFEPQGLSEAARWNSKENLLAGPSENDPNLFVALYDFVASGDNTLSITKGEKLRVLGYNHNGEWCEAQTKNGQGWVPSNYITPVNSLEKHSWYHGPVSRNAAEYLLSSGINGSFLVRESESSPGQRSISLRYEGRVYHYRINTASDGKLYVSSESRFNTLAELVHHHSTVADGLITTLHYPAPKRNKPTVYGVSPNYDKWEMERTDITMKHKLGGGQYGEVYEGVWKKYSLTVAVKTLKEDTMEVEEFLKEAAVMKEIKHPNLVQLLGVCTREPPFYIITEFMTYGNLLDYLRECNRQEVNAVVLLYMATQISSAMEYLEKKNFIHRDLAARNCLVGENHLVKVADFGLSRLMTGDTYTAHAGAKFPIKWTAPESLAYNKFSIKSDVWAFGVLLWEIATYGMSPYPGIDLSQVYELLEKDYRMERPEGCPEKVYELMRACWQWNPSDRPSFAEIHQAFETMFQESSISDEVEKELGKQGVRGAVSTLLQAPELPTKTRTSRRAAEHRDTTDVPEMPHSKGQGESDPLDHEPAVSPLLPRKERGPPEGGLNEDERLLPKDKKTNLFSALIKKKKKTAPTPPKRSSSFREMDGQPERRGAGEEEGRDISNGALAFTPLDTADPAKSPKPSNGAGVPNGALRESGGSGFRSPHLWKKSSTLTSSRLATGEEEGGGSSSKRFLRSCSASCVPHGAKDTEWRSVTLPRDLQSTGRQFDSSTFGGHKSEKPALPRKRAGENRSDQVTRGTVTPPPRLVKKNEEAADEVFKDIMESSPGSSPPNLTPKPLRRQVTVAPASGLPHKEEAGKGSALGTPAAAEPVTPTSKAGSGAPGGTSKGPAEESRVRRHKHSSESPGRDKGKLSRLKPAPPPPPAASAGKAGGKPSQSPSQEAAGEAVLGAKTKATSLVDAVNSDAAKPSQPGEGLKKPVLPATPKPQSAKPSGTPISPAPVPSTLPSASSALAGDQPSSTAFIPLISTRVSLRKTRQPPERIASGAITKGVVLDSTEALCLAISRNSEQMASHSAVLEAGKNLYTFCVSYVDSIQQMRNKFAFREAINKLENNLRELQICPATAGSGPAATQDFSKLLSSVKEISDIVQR
T1 sequence (P52333 781-1124): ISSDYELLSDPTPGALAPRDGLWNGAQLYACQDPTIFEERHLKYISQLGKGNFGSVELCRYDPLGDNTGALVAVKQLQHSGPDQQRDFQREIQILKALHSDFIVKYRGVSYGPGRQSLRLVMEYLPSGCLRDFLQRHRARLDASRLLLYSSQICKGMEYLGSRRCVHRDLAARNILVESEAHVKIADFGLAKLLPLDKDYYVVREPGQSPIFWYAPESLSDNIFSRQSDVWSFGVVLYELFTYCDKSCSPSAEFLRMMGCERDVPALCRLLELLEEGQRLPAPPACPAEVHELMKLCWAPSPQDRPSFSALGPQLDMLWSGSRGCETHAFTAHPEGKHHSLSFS
T2 sequence (O60674 828-1132): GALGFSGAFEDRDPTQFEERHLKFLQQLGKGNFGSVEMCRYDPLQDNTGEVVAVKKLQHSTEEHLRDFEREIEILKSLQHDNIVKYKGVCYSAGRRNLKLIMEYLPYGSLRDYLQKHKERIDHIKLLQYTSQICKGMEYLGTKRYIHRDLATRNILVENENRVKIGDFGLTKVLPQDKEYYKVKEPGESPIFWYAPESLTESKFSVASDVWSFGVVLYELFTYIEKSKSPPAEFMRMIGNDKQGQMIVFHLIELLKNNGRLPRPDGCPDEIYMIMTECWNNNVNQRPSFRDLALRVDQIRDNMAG

As a reminder, the IC50 is the point on the concentration scale where inhibition reaches its midpoint. Regarding `Cc1ccc(C(=O)N[C@H](C)c2ccccc2)cc1-c1ccc2c(c1)[nH]c1ncncc12` [Example 63, 4-methyl-N-[(1R)-1-phenylethyl]-3-(9H-pyrimido[4,5-b]indol-7-yl)benzamide], the IC50 was 0.5 to 1 µM in assay [1], over 1 µM in assay [2], over 1 µM in assay [3] and over 1 µM in assay [4]. Moreover, the GI50 on TF1-BCRABL1 cells fell in the range of 0.5 to 1 µM.

As to `Cc1ccc(NC(=O)c2cccc(Cl)c2)cc1-c1ccc2c(c1)[nH]c1ncncc12` [Example 15, 3-chloro-N-[4-methyl-3-(9H-pyrimido[4,5-b]indol-7-yl)-phenyl]benzamide], the IC50 in assay [1], in assay [2], in assay [3] and in assay [4] was at most 0.5 µM throughout. Moreover, the GI50 at TF1-BCRABL1 cells is at most 0.5 µM.

Take `Cc1ccc(C(=O)Nc2nnc(C(F)(F)F)s2)cc1-c1ccc2c(c1)[nH]c1ncncc12` [Example 61, 4-methyl-3-(9H-pyrimido-[4,5-b]indol-7-yl)-N-[5-(trifluoromethyl)-1,3,4-thiadiazol-2-yl]benzamide]: the IC50 in assay [1] is at most 0.5 µM; in assay [2], over 1 µM; in assay [3] it was over 1 µM; in assay [4], over 1 µM. Further, the GI50 on TF1-BCRABL1 cells was 0.5 to 1 µM.

Regarding `O=C(Nc1cccc(-c2ccc3c(c2)[nH]c2ncncc23)c1)c1cccc(C(F)(F)F)c1` [Example 14, N-[3-(9H-pyrimido[4,5-b]-indol-7-yl)phenyl]-3-(trifluoro-methyl)benzamide], the concentration for half-maximal inhibition (IC50) was over 1 µM in assay [1], at most 0.5 µM in assay [2], over 1 µM in assay [3] and at most 0.5 µM in assay [4]. Also, the GI50 at TF1-BCRABL1 cells was 0.5 to 1 µM.

`Cc1cn(-c2cc(C(=O)Nc3ccc(C)c(-c4ccc5c(c4)[nH]c4ncncc45)c3)cc(C(F)(F)F)c2)cn1` [Example 2, 3-(4-Methyl-1H-imidazol-1-yl)-N-[4-methyl-3-(9H-pyrimido[4,5-b]indol-7-yl)-phenyl]-5-(trifluoromethyl)benzamide bis(trifluoroacetate)]: the IC50 in assay [1] was at most 0.5 µM; in assay [2] it was at most 0.5 µM; in assay [3], 0.5 to 1 µM; in assay [4], at most 0.5 µM. Also, the GI50 at TF1-BCRABL1 cells was at most 0.5 µM.

On to `Cc1ncc(NC(=O)c2cccc(C(F)(F)F)c2)cc1-c1ccc2c(c1)[nH]c1ncncc12` [Example 70, N-[6-methyl-5-(9H-pyrimido[4,5-b]indol-7-yl)pyridin-3-yl]-3-(trifluoromethyl)benzamide], for which the IC50 in assay [1] was at most 0.5 µM; in assay [2], at most 0.5 µM; in assay [3], 0.5 to 1 µM; in assay [4], at most 0.5 µM. The GI50 on TF1-BCRABL1 cells was at most 0.5 µM.

Take `Cc1ccc(C(=O)NCc2cccc(C(F)(F)F)c2)cc1-c1ccc2c(c1)[nH]c1ncncc12` [Example 56, 4-methyl-3-(9H-pyrimido-[4,5-b]indol-7-yl)-N-[3-(trifluoromethyl)benzyl]-benzamide]: the IC50 in assay [1] is at most 0.5 µM; in assay [2] it was over 1 µM; in assay [3], over 1 µM; in assay [4] it was over 1 µM. Besides, the GI50 at TF1-BCRABL1 cells is at most 0.5 µM.

Turning to `Cc1ccc(C(=O)Nc2cccc(S(F)(F)(F)(F)F)c2)cc1-c1ccc2c(c1)[nH]c1ncncc12` [Example 65, 4-methyl-N-[3-(pentafluoro-λ(6)-sulfanyl)phenyl]-3-(9H-pyrimido[4,5-b]indol-7-yl)-benzamide], the concentration for half-maximal inhibition (IC50) in assay [1] is at most 0.5 µM; in assay [2] it was at most 0.5 µM; in assay [3], 0.5 to 1 µM; in assay [4] it was at most 0.5 µM. For the same compound, at TF1-BCRABL1 cells, the GI50 was at most 0.5 µM.

In the case of `Cc1ccc(NC(=O)c2cc(F)cc(C(F)(F)F)c2)cc1-c1ccc2c(c1)[nH]c1ncncc12` [Example 19, 3-Fluoro-N-[4-methyl-3-(9H-pyrimido[4,5-b]indol-7-yl)phenyl]-5-(trifluoro-methyl)benzamide], the IC50 in assay [1], in assay [2], in assay [3] and in assay [4] was at most 0.5 µM throughout. Also, the GI50 at TF1-BCRABL1 cells was at most 0.5 µM.

As to `Cc1ccc(NC(=O)c2ccccc2C(F)(F)F)cc1-c1ccc2c(c1)[nH]c1ncncc12` [Example 12, N-[4-methyl-3-(9H-pyrimido-[4,5-b]indol-7-yl)phenyl]-2-(trifluoromethyl)benzamide], the 50% inhibitory concentration (IC50) in assay [1] was at most 0.5 µM; in assay [2], over 1 µM; in assay [3], over 1 µM; in assay [4] it was at most 0.5 µM. In addition, the GI50 at TF1-BCRABL1 cells was in the range of 0.5 to 1 µM.

Regarding `COc1ccc(C(=O)Nc2cccc(C(F)(F)F)c2)cc1-c1ccc2c(c1)[nH]c1ncncc12` [Example 60, 4-methoxy-3-(9H-pyrimido-[4,5-b]indol-7-yl)-N-[3-(trifluoromethyl)phenyl]-benzamide], the IC50 in assay [1] is 0.5 to 1 µM; in assay [2], at most 0.5 µM; in assay [3], over 1 µM; in assay [4], at most 0.5 µM. Further, the GI50 on TF1-BCRABL1 cells was at most 0.5 µM.

As to `Cc1ccc(NC(=O)c2cc(F)cc(C(F)(F)F)c2)cc1-c1ccc2[nH]c3ncncc3c2c1` [Example 43, 3-fluoro-N-[4-methyl-3-(9H-pyrimido[4,5-b]indol-6-yl)-phenyl]-5-(trifluoromethyl)-benzamide], the IC50 in assay [1] is at most 0.5 µM; in assay [2], at most 0.5 µM; in assay [3] it was 0.5 to 1 µM; in assay [4], over 1 µM. Moreover, at TF1-BCRABL1 cells, the GI50 is at most 0.5 µM.

With `Cc1ccc(C(=O)Nc2cccc(OC(F)(F)F)c2)cc1-c1ccc2c(c1)[nH]c1ncncc12` [Example 54, 4-methyl-3-(9H-pyrimido-[4,5-b]indol-7-yl)-N-[3-(trifluoromethoxy)phenyl]-benzamide], the IC50 in assay [1] was at most 0.5 µM; in assay [2], at most 0.5 µM; in assay [3], 0.5 to 1 µM; in assay [4], at most 0.5 µM. For the same compound, the GI50 on TF1-BCRABL1 cells was at most 0.5 µM.

For the compound `Cc1cccc(NC(=O)c2ccc(C)c(-c3ccc4c(c3)[nH]c3ncncc34)c2)c1` [Example 53, 4-methyl-N-(3-methyl-phenyl)-3-(9H-pyrimido-[4,5-b]indol-7-yl)benzamide], the 50% inhibitory concentration (IC50) was at most 0.5 µM in assay [1], at most 0.5 µM in assay [2], 0.5 to 1 µM in assay [3] and at most 0.5 µM in assay [4]. At TF1-BCRABL1 cells, the GI50 is at most 0.5 µM.

For `Cc1ccc(NC(=O)c2cc(C(F)(F)F)ccc2C(F)(F)F)cc1-c1ccc2[nH]c3ncncc3c2c1` [Example 45, N-[4-methyl-3-(9H-pyrimido-[4,5-b]indol-6-yl)phenyl]-2,5-bis(trifluoromethyl)benzamide], the IC50 in assay [1] was over 1 µM; in assay [2], over 1 µM; in assay [3] it was over 1 µM; in assay [4] it was at most 0.5 µM. Also, the GI50 on TF1-BCRABL1 cells was in the range of 0.5 to 1 µM.

Regarding `Cc1ccc(NC(=O)c2cccc(C(F)(F)F)c2F)cc1-c1ccc2c(c1)[nH]c1ncncc12` [Example 3, 2-fluoro-N-[4-methyl-3-(9H-pyrimido[4,5-b]indol-7-yl)-phenyl]-3-(trifluoromethyl)-benzamide], the half-maximal inhibitory concentration (IC50) in assay [1], in assay [2], in assay [3] and in assay [4] was at most 0.5 µM throughout. Further, the GI50 on TF1-BCRABL1 cells was at most 0.5 µM.
